Laboratory results taken from US8895504B2, “Amylin derivatives” (priority 2008, dated 2014).
pEC50: −log10 of the molar value. *1 amine or outer side, *2 acyl side, *3 side chain or, on linkers, in order; H or OH if unused. Where a SMILES comes first, the peptide text is derived from it. Bridges are numbered along the chain shown (N, C = ends). The star is where a group is joined. C20 diacid = O=C(O)CCCCCCCCCCCCCCCCCCC(=O)*; γGlu = O=C(O)[C@H](CCC(=O)[*:2])N[*:1]

The compounds below were run against T1, Amylin 3(a) receptor (human calcitonin receptor (CTa) and RAMP-3) (Homo sapiens, UniProt O60896+P30988) (assay: Luciferase assay (III), BHK Amylin 3(a)//CRE-luc cells). Conditions: BHK cells with Amylin 3(a) receptor and CRE luciferase reporter, 4 hours incubation; read-out: Potency Luciferase.
T1 construct: expressed in transfected cells; host or cells: BHK570 cells, stably transfected with a CRE-luciferase reporter
Type: cell-based
Text: It has previously been published (Poyner D R et al 2002, Pharmacological Reviews 54(2) 233-246) that activation of Amylin receptors (coexpression of Calcitonin receptor and receptor activity modifying peptides RAMPs) by Amylin leads to an increase in the intracellular concentration of cAMP. Consequently, transcription is activated at promoters containing multiple copies of the cAMP response element (CRE). It is thus possible to measure Amylin activity by use of a CRE luciferase reporter gene introduced into BHK cells also expressing an Amylin receptor.
2. Construction of an Amylin 3(a)/CRE-luc Cell Line
A BHK570 cell line stably transfected with the human calcitonin receptor (CTa) and a CRE-responsive luciferase reportergene. The cell line was further transfected with RAMP-3, using standard methods. This turns the Calcitonin receptor into an Amylin 3(a) receptor. Methotrexate, Neomycin, and Hygromycin are selection markers for luciferase, the Calcitonin receptor, and RAMP-3, respectively.
3. Amylin Luciferase Assay
To perform activity assays, BHK Amylin 3(a)//CRE-luc cells were seeded in white 96 well culture plates at a density of about 20,000 cells/well. The cells were in 100 μl growth medium (DMEM with 10% FBS, 1% Pen/Strep, 1 mM Na-pyruvate, 250 nM Methotrexate, 500 μg/ml Neomycin, and 400 μg/ml Hygromycin). After incubation overnight at 37° C. and 5% CO2, the growth medium was replaced by 50 μl/well assay medium (DMEM (without phenol red), Glumamax™, 10% FBS, and 10 mM Hepes, pH 7,4). Further, 50 μl/well of standard or sample in assay buffer were added. After 4 hours incubation at 37° C. and 5% CO2, the assay medium with standard or sample were removed and replaced by 100 μl/well PBS. Further, 100 μl/well LucLite™ was added. The plates were sealed and incubated at room temperature for 30 minutes. Finally, luminescence was measured on a TopCounter (Packard) in SPC (single photon counting) mode.

T1 sequence (O60896 24-148): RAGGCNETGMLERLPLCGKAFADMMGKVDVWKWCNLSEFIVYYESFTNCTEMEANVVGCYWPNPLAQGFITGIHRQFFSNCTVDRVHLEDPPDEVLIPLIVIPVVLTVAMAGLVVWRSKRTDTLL
T1 sequence (P30988 25-474): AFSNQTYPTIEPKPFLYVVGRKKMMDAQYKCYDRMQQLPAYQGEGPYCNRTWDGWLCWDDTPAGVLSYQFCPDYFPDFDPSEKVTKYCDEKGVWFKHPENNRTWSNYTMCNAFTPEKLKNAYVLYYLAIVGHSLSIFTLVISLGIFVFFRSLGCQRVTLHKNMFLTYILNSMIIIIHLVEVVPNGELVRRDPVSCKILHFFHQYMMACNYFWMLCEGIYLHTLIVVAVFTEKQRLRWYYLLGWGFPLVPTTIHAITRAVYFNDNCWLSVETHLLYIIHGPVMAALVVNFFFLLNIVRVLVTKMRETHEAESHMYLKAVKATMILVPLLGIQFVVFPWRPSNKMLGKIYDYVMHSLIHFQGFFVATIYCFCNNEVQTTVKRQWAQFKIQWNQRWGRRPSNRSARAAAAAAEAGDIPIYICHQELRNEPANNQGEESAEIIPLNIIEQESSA

| Structure (SMILES) | pEC50 |
| --- | --- |
| CC[C@H](C)[C@H](NC(=O)[C@@H]1CCCN1C(=O)CNC(=O)[C@H](Cc1ccccc1)NC(=O)[C@H](CC(N)=O)NC(=O)[C@H](CC(N)=O)NC(=O)[C@H](CO)NC(=O)[C@H](CO)NC(=O)[C@H](Cc1c[nH]cn1)NC(=O)[C@H](CCCNC(=N)N)NC(=O)[C@H](CC(C)C)NC(=O)[C@H](Cc1ccccc1)NC(=O)[C@H](CC(N)=O)NC(=O)[C@H](C)NC(=O)[C@H](CC(C)C)NC(=O)[C@H](CCCNC(=N)N)NC(=O)[C@H](CCC(N)=O)NC(=O)[C@@H](NC(=O)[C@H](C)NC(=O)[C@@H]1CSSC[C@H](NC(=O)[C@H](Cc2c[nH]cn2)NC(=O)CC[C@H](NC(=O)CCCCCCCCCCCCCCCCCCC(=O)O)C(=O)O)C(=O)N[C@@H](CC(N)=O)C(=O)N[C@@H]([C@@H](C)O)C(=O)N[C@@H](C)C(=O)N[C@@H]([C@@H](C)O)C(=O)N1)[C@@H](C)O)C(=O)N[C@@H](CC(C)C)C(=O)N1CCC[C@H]1C(=O)N1CCC[C@H]1C(=O)N[C@H](C(=O)N[C@@H](CC(N)=O)C(=O)N[C@H](C(=O)NCC(=O)N[C@@H](CO)C(=O)N[C@@H](CC(N)=O)C(=O)N[C@H](C(=O)N[C@@H](Cc1ccc(O)cc1)C(N)=O)[C@@H](C)O)C(C)C)[C@@H](C)O [Example 36, N-alpha-[(S)-4-Carboxy-4-(19-carboxynonadecanoylamino)butyryl]-[His1,Arg17]-pramlintide] ({C20 diacid-γGlu}-HCNTATCATQRLANFLRHSSNNFGPILPPTNVGSNTY-NH2; disulfide 2-7) | 10.00 |
| CC[C@H](C)[C@H](NC(=O)[C@@H]1CCCN1C(=O)CNC(=O)[C@H](Cc1ccccc1)NC(=O)[C@H](CC(N)=O)NC(=O)[C@H](CC(N)=O)NC(=O)[C@H](CO)NC(=O)[C@H](CO)NC(=O)[C@H](Cc1c[nH]cn1)NC(=O)[C@H](Cc1c[nH]cn1)NC(=O)[C@H](CC(C)C)NC(=O)[C@H](Cc1ccccc1)NC(=O)[C@H](CC(N)=O)NC(=O)[C@H](C)NC(=O)[C@H](CC(C)C)NC(=O)[C@H](CCCNC(=N)N)NC(=O)[C@H](CCC(N)=O)NC(=O)[C@@H](NC(=O)[C@H](C)NC(=O)[C@@H]1CSSC[C@H](NC(=O)[C@H](CCCNC(=N)N)NC(=O)CC[C@H](NC(=O)CCCCCCCCCCCCCCCCCCC(=O)O)C(=O)O)C(=O)N[C@@H](CC(N)=O)C(=O)N[C@@H]([C@@H](C)O)C(=O)N[C@@H](C)C(=O)N[C@@H]([C@@H](C)O)C(=O)N1)[C@@H](C)O)C(=O)N[C@@H](CC(C)C)C(=O)N1CCC[C@H]1C(=O)N1CCC[C@H]1C(=O)N[C@H](C(=O)N[C@@H](CC(N)=O)C(=O)N[C@H](C(=O)NCC(=O)N[C@@H](CO)C(=O)N[C@@H](CC(N)=O)C(=O)N[C@H](C(=O)N[C@@H](Cc1ccc(O)cc1)C(N)=O)[C@@H](C)O)C(C)C)[C@@H](C)O [Example 6, N-alpha-[(S)-4-Carboxy-4-(19-carboxynonadecanoylamino)butyryl]-[Arg1,His17]-pramlintide] ({C20 diacid-γGlu}-RCNTATCATQRLANFLHHSSNNFGPILPPTNVGSNTY-NH2; disulfide 2-7) | 9.52 |

The next lines start with the values.

| pEC50 | Structure (SMILES) |
| --- | --- |
| 10.10 | CC[C@H](C)[C@H](NC(=O)[C@@H]1CCCN1C(=O)CNC(=O)[C@H](Cc1ccccc1)NC(=O)[C@H](CC(N)=O)NC(=O)[C@H](CC(N)=O)NC(=O)[C@H](CO)NC(=O)[C@H](CO)NC(=O)[C@H](Cc1c[nH]cn1)NC(=O)[C@H](Cc1c[nH]cn1)NC(=O)[C@H](CC(C)C)NC(=O)[C@H](Cc1ccccc1)NC(=O)[C@H](CC(N)=O)NC(=O)[C@H](C)NC(=O)[C@H](CC(C)C)NC(=O)[C@H](CCCNC(=N)N)NC(=O)[C@H](CCC(N)=O)NC(=O)[C@@H](NC(=O)[C@H](C)NC(=O)[C@@H]1CSSC[C@H](NC(=O)[C@H](CCCCN)NC(=O)[C@H](CCCNC(=N)N)NC(=O)CC[C@H](NC(=O)CCCCCCCCCCCCCCCCCCC(=O)O)C(=O)O)C(=O)N[C@@H](CC(N)=O)C(=O)N[C@@H]([C@@H](C)O)C(=O)N[C@@H](C)C(=O)N[C@@H]([C@@H](C)O)C(=O)N1)[C@@H](C)O)C(=O)N[C@@H](CC(C)C)C(=O)N1CCC[C@H]1C(=O)N1CCC[C@H]1C(=O)N[C@H](C(=O)N[C@@H](CC(N)=O)C(=O)N[C@H](C(=O)NCC(=O)N[C@@H](CO)C(=O)N[C@@H](CC(N)=O)C(=O)N[C@H](C(=O)N[C@@H](Cc1ccc(O)cc1)C(N)=O)[C@@H](C)O)C(C)C)[C@@H](C)O [Example 17, N-alpha-[(S)-4-Carboxy-4-(19-carboxynonadecanoylamino)butyryl]-Arg-[His17]-pramlintide] ({C20 diacid-γGlu}-RKCNTATCATQRLANFLHHSSNNFGPILPPTNVGSNTY-NH2; disulfide 3-8) |
| 10.00 | CC[C@H](C)[C@H](NC(=O)[C@@H]1CCCN1C(=O)CNC(=O)[C@H](Cc1ccccc1)NC(=O)[C@H](CC(N)=O)NC(=O)[C@H](CC(N)=O)NC(=O)[C@H](CO)NC(=O)[C@H](CO)NC(=O)[C@H](Cc1c[nH]cn1)NC(=O)[C@H](C)NC(=O)[C@H](CC(C)C)NC(=O)[C@H](Cc1ccccc1)NC(=O)[C@H](CC(N)=O)NC(=O)[C@H](C)NC(=O)[C@H](CC(C)C)NC(=O)[C@H](CCCNC(=N)N)NC(=O)[C@H](CCC(N)=O)NC(=O)[C@@H](NC(=O)[C@H](C)NC(=O)[C@@H]1CSSC[C@H](NC(=O)[C@H](CCCCN)NC(=O)[C@H](CCCNC(=N)N)NC(=O)CC[C@H](NC(=O)CCCCCCCCCCCCCCCCCCC(=O)O)C(=O)O)C(=O)N[C@@H](CC(N)=O)C(=O)N[C@@H]([C@@H](C)O)C(=O)N[C@@H](C)C(=O)N[C@@H]([C@@H](C)O)C(=O)N1)[C@@H](C)O)C(=O)N[C@@H](CC(C)C)C(=O)N1CCC[C@H]1C(=O)N1CCC[C@H]1C(=O)N[C@H](C(=O)N[C@@H](CC(N)=O)C(=O)N[C@H](C(=O)NCC(=O)N[C@@H](CO)C(=O)N[C@@H](CC(N)=O)C(=O)N[C@H](C(=O)N[C@@H](Cc1ccc(O)cc1)C(N)=O)[C@@H](C)O)C(C)C)[C@@H](C)O [Example 19, N-alpha-[(S)-4-Carboxy-4-(19-carboxynonadecanoylamino)butyryl]-Arg-[Ala17]-pramlintide] ({C20 diacid-γGlu}-RKCNTATCATQRLANFLAHSSNNFGPILPPTNVGSNTY-NH2; disulfide 3-8) |
| 10.30 | CC[C@H](C)[C@H](NC(=O)[C@@H]1CCCN1C(=O)CNC(=O)[C@H](Cc1ccccc1)NC(=O)[C@H](CC(N)=O)NC(=O)[C@H](CC(N)=O)NC(=O)[C@H](CO)NC(=O)[C@H](CO)NC(=O)[C@H](Cc1c[nH]cn1)NC(=O)[C@H](Cc1c[nH]cn1)NC(=O)[C@H](CC(C)C)NC(=O)[C@H](Cc1ccccc1)NC(=O)[C@H](CC(N)=O)NC(=O)[C@H](C)NC(=O)[C@H](CC(C)C)NC(=O)[C@H](CCCNC(=N)N)NC(=O)[C@H](CCC(N)=O)NC(=O)[C@@H](NC(=O)[C@H](C)NC(=O)[C@@H]1CSSC[C@H](NC(=O)[C@H](Cc2c[nH]cn2)NC(=O)[C@H](CCCNC(=N)N)NC(=O)[C@H](Cc2c[nH]cn2)NC(=O)CC[C@H](NC(=O)CCCCCCCCCCCCCCCCCCC(=O)O)C(=O)O)C(=O)N[C@@H](CC(N)=O)C(=O)N[C@@H]([C@@H](C)O)C(=O)N[C@@H](C)C(=O)N[C@@H]([C@@H](C)O)C(=O)N1)[C@@H](C)O)C(=O)N[C@@H](CC(C)C)C(=O)N1CCC[C@H]1C(=O)N1CCC[C@H]1C(=O)N[C@H](C(=O)N[C@@H](CC(N)=O)C(=O)N[C@H](C(=O)NCC(=O)N[C@@H](CO)C(=O)N[C@@H](CC(N)=O)C(=O)N[C@H](C(=O)N[C@@H](Cc1ccc(O)cc1)C(N)=O)[C@@H](C)O)C(C)C)[C@@H](C)O [Example 72, N-alpha-[(S)-4-Carboxy-4-(19-carboxynonadecanoylamino)butyryl]-His-Arg-[His1,His17]-pramlintide] ({C20 diacid-γGlu}-HRHCNTATCATQRLANFLHHSSNNFGPILPPTNVGSNTY-NH2; disulfide 4-9) |
